pIC50: −log10 of the molar value.

One test deals with PKMYT1 (CDK1 pThr14) in FUOV1 cells. Nature of the test: PKMYT1 cell-based activity assay, CDK1 pThr14 AlphaLISA in FUOV1 cells. Conditions: 2 h, 2 hours with compound, read-out: FUOV-1 CDK1 pThr14 IC50. The essentials:
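FUOV1 cells were treated with PKMYT1 inhibitor for 2 h at 37 °C, then lysed. CDK1 pThr14 was measured by AlphaLISA, pairing an anti-pThr14 antibody with an anti-total CDK1 antibody (5 nM each). Signal read at 680/615 nm and used to derive IC50.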
As to `Cc1cc(F)c2[nH]ncc2c1-c1nc(-c2cc(F)cnc2N[C@H]2CC[C@@](C)(O)CC2)nc(C(N)=O)c1N` [Compound 875], the pIC50 was 6.77.
In the case of `Cc1ccc2[nH]ncc2c1-c1nc(-c2cc(F)cnc2NC2CCN(CC(F)F)CC2)nc(C(N)=O)c1N` [Compound 876], the pIC50 was 6.13.
For the compound `Cc1ccc(Cl)nc1Nc1nc(F)ccc1-c1nc(C(N)=O)c(N)c(-c2c(C)cc(F)c3[nH]ncc23)n1` [Compound 877], the pIC50 is 7.43.
`Cc1cc(F)c2[nH]ncc2c1-c1nc(-c2ccc(F)nc2Nc2ncccc2C(F)F)nc(C(N)=O)c1N` [Compound 878]: the pIC50 is 7.44.
For the compound `Cc1cc(F)c2[nH]ncc2c1-c1nc(-c2ccc(F)nc2Nc2nc(F)ccc2F)nc(C(N)=O)c1N` [Compound 879], the pIC50 is 8.15.
Turning to `Cc1cc(F)c2[nH]ncc2c1-c1nc(-c2ccc(F)cc2Nc2ncccc2C#N)nc(C(N)=O)c1N` [Compound 880], the pIC50 is 8.10.
For `Cc1ccc2[nH]ncc2c1-c1nc(-c2ccccc2NC2CC(O)(C(F)(F)F)C2)nc(C(N)=O)c1N` (stereo not drawn) [Compound 882], the pIC50 is 7.31.
Still for that read-out and setting: to `Cc1ccc2[nH]ncc2c1-c1nc(-c2cc(F)cnc2N[C@@H]2CCOCC2(F)F)nc(C(N)=O)c1N` [Compound 883] belongs 7.44.
Take `Cc1ccc2[nH]ncc2c1-c1nc(-c2ccnnc2Nc2ncccc2F)nc(C(N)=O)c1N` [Compound 886, 5-amino-2-(3-((3-fluoropyridin-2-yl)amino)pyridazin-4-yl)-6-(5-methyl-1H-indazol-4-yl)pyrimidine-4-carboxamide]: the pIC50 is 7.43.
Regarding `Cc1cc(F)c2[nH]ncc2c1-c1nc(-c2cc(F)cnc2N[C@H]2CCOC[C@H]2F)nc(C(N)=O)c1N` [Compound 887], the pIC50 is 6.98.
On the same count and under the same terms, the same measure for `Cc1ccc2[nH]ncc2c1-c1nc(-c2cc(F)cnc2N[C@@H](C)C(F)(F)F)nc(C(N)=O)c1N` [Compound 888]: 6.95.
Take `Cc1ccc2[nH]ncc2c1-c1nc(-c2cc(F)cnc2N[C@H](C)C(F)(F)F)nc(C(N)=O)c1N` [Compound 889]: the negative logarithm of the IC50 (pIC50) was 7.25.
As for `Cc1ccc2[nH]ncc2c1-c1nc(-c2cc(F)cnc2N[C@H]2C[C@H]3CC[C@@H]2O3)nc(C(N)=O)c1N` [Compound 891], the pIC50 was 7.66.
As to `Cc1ccc2[nH]ncc2c1-c1nc(-c2cc(F)cnc2NCc2cnn(C)c2)nc(C(N)=O)c1N` [Compound 895], the negative-log IC50 (pIC50) was 6.06.
Regarding `Cc1ccc2n[nH]cc2c1-c1nc(-c2cc(F)cnc2N[C@H]2C[C@](O)(C(F)F)C2)nc(C(N)=O)c1N` [Compound 897], the pIC50 was 6.91.
Turning to `Cc1ccc2[nH]ncc2c1-c1nc(-c2cc(F)cnc2N[C@H]2C[C@@H]3CC[C@H]2O3)nc(C(N)=O)c1N` [Compound 899], the pIC50 was 7.48.
As to `Cc1ccc2[nH]ncc2c1-c1nc(-c2ccc(F)cc2N[C@H]2C[C@H](O)C2)nc(C(N)=O)c1N` [Compound 906], the pIC50 was 7.29.
Regarding `Cc1cc(F)c2[nH]ncc2c1-c1nc(-c2ccc(C(F)F)nc2Nc2ncccn2)nc(C(N)=O)c1N` [Compound 907], the negative logarithm of the IC50 (pIC50) is 6.67.
`Cc1cc(F)c2[nH]ncc2c1-c1nc(-c2ccc(C(F)F)nc2Nc2nccnc2Cl)nc(C(N)=O)c1N` [Compound 909]: the pIC50 is 6.97.
Regarding `Cc1ccc2[nH]ncc2c1-c1nc(-c2cn(C(F)(F)F)nc2NC2CCOCC2)nc(C(N)=O)c1N` [Compound 910], the pIC50 is 6.70.
The same measure, in the same setting: to `Cc1ccc(-c2nc(C(N)=O)c(N)c(-c3c(C)ccc4[nH]ncc34)n2)c(Nc2ncccc2F)n1` [Compound 911] belongs 9.00; to `NC(=O)c1nc(-c2cccnc2NCC(F)(F)F)nc(-c2c(Cl)ccc3[nH]ncc23)c1N` [Compound 912], 6.75.
Turning to `NC(=O)c1nc(-c2ccc(F)nc2Nc2ncccc2F)nc(-c2c(Cl)ccc3[nH]ncc23)c1N` [Compound 913], the negative logarithm of the IC50 (pIC50) was 8.10.
For `Cc1ccc2[nH]ncc2c1-c1nc(-c2cccnc2NC2CC2)nc(C(N)=O)c1N` [Compound 914, 5-amino-2-(2-(cyclopropylamino)pyridin-3-yl)-6-(5-methyl-1H-indazol-4-yl)pyrimidine-4-carboxamide], the pIC50 was 7.27.
On to `Cn1cc(-c2nc(C(N)=O)c(N)c(-c3c(Cl)ccc4[nH]ncc34)n2)c(NC2CCOCC2)n1` [Compound 915], for which the negative logarithm of the IC50 (pIC50) was 6.79.
Take `Cc1ccc2[nH]ncc2c1-c1nc(-c2cn(C)nc2Nc2ccccn2)nc(C(N)=O)c1N` [Compound 916, 5-amino-6-(5-methyl-1H-indazol-4-yl)-2-(1-methyl-3-(pyridin-2-ylamino)-1H-pyrazol-4-yl)pyrimidine-4-carboxamide]: the pIC50 is 6.03.
For the compound `Cc1ccc2[nH]ncc2c1-c1nc(-c2ccc(F)nc2Nc2cccnc2F)nc(C(N)=O)c1N` [Compound 917], the pIC50 was 6.69.
For the compound `Cc1ccc2[nH]ncc2c1-c1nc(-c2cccnc2N[C@H]2C[C@@](C)(O)C2)nc(C(N)=O)c1N` [Compound 918], the pIC50 is 7.33.
For `NC(=O)c1nc(-c2cccnc2NC2CC2)nc(-c2c(Cl)ccc3[nH]ncc23)c1N` [Compound 919], the pIC50 was 7.04.
In the case of `Cn1cc(-c2nc(C(N)=O)c(N)c(-c3c(Cl)ccc4[nH]ncc34)n2)c(NC2CCCC2)n1` [Compound 920], the pIC50 was 6.93.
Turning to `Cc1ccc2[nH]ncc2c1-c1nc(-c2ccc(F)nc2Nc2nc(F)ccc2F)nc(C(N)=O)c1N` [Compound 921], the pIC50 is 8.40.
With `COc1ccc(F)c(Nc2nc(F)ccc2-c2nc(C(N)=O)c(N)c(-c3c(C)ccc4[nH]ncc34)n2)n1` [Compound 922], the pIC50 is 7.47.
For the compound `NC(=O)c1nc(-c2ccc(F)nc2Nc2ncccn2)nc(-c2c(Cl)ccc3[nH]ncc23)c1N` [Compound 923], the pIC50 is 7.17.
`Cc1ccc2[nH]ncc2c1-c1nc(-c2ccc(F)nc2Nc2nccnc2Cl)nc(C(N)=O)c1N` [Compound 924]: the pIC50 is 7.82.
For the compound `Cc1ccc2[nH]ncc2c1-c1nc(-c2cn(C)nc2Nc2ncccc2F)nc(C(N)=O)c1N` [Compound 925], the pIC50 is 6.89.
Same read-out and setting: the same measure for `Cc1ccc2[nH]ncc2c1-c1nc(-c2cn(C)nc2Nc2ncccn2)nc(C(N)=O)c1N` [Compound 926]: 6.18.
`Cc1ccc2[nH]ncc2c1-c1nc(-c2c[nH]nc2NC2CCOCC2)nc(C(N)=O)c1N` [Compound 927]: the pIC50 is 6.46.
For `Cc1ccc2[nH]ncc2c1-c1nc(-c2ccc(C(F)F)nc2Nc2ncccn2)nc(C(N)=O)c1N` [Compound 928], the pIC50 is 6.84.
As for `Cc1ccc2[nH]ncc2c1-c1nc(-c2ccc(F)nc2Nc2ncccc2F)nc(C(N)=O)c1N` [Compound 929], the pIC50 is 8.15.
Consider `[2H]C([2H])([2H])c1ccc2[nH]ncc2c1-c1nc(-c2ccc(F)nc2Nc2ncccc2F)nc(C(N)=O)c1N` [Compound 930], for which the pIC50 is 8.30.
Still for that read-out and setting: the same measure for `Cc1ccc2[nH]ncc2c1-c1nc(-c2ccc(C(F)F)nc2Nc2ncccc2F)nc(C(N)=O)c1N` [Compound 931]: 7.85; for `NC(=O)c1nc(-c2cccnc2NC2CC2)nc(-c2cccc3[nH]ncc23)c1N` [Compound 932]: 6.33.
Turning to `NC(=O)c1nc(-c2cccnc2NC2CC2)nc(-c2c(F)ccc3[nH]ncc23)c1N` [Compound 933], the pIC50 was 7.19.
`Cc1ccc2[nH]ncc2c1-c1nc(-c2ccc(F)nc2Nc2ncccc2C#N)nc(C(N)=O)c1N` [Compound 934]: the pIC50 is 7.92.
On the same count and under the same terms, the same measure for `Cc1ccc2[nH]ncc2c1-c1nc(-c2ccc(Cl)nc2Nc2ncccc2C#N)nc(C(N)=O)c1N` [Compound 935]: 8.10; for `Cc1ccc2[nH]ncc2c1-c1nc(-c2ccncc2Nc2ncccc2F)nc(C(N)=O)c1N` [Compound 938]: 8.70; for `Cc1ccc2[nH]ncc2c1-c1nc(-c2cc(Cl)ncc2Nc2ncccc2F)nc(C(N)=O)c1N` [Compound 939]: 8.05.
Still for that read-out and setting: to `Cc1ccc2[nH]ncc2c1-c1nc(-c2ccc(F)cc2Nc2ccnc(C3CC3)n2)nc(C(N)=O)c1N` [Compound 940] belongs 6.57; to `Cc1ccc(-c2nc(C(N)=O)c(N)c(-c3c(C)ccc4[nH]ncc34)n2)c(Nc2nccc(Cl)n2)n1` [Compound 941], 8.05.
On to `NC(=O)c1nc(-c2cccnc2NCC(F)(F)F)nc(-c2c(Cl)c(F)cc3[nH]ncc23)c1N` [Compound 942], for which the negative logarithm of the IC50 (pIC50) is 6.40.
Regarding `Cc1ccc(Cl)nc1Nc1nc(F)ccc1-c1nc(C(N)=O)c(N)c(-c2c(C)ccc3[nH]ncc23)n1` [Compound 943], the pIC50 is 7.66.
Take `Cc1ccc2[nH]ncc2c1-c1nc(-c2ccc(Cl)nc2Nc2ncccc2C(F)F)nc(C(N)=O)c1N` [Compound 944]: the negative logarithm of the IC50 (pIC50) is 7.55.
For `Cc1ccc2[nH]ncc2c1-c1nc(-c2ccc(F)nc2Nc2ncccc2C(F)F)nc(C(N)=O)c1N` [Compound 945], the negative logarithm of the IC50 (pIC50) is 7.64.
Still for that read-out and setting: the same measure for `[2H]C([2H])([2H])c1ccc2[nH]ncc2c1-c1nc(-c2ccc(Cl)nc2Nc2ncccn2)nc(C(N)=O)c1N` [Compound 946]: 7.29.
As for `Cc1ccc2[nH]ncc2c1-c1nc(-c2ccc(F)nc2Nc2nc(C(F)F)ccc2F)nc(C(N)=O)c1N` [Compound 947], the pIC50 was 8.40.
`NC(=O)c1nc(-c2ccccc2Nc2ncccn2)nc(-c2c(Cl)ccc3[nH]ncc23)c1N` [Compound 948]: the pIC50 is 7.36.
On the same count and under the same terms, to `NC(=O)c1nc(-c2ccc(F)cc2Nc2ncccn2)nc(-c2c(Cl)ccc3[nH]ncc23)c1N` [Compound 949] belongs 7.30; to `Cc1ccc(-c2nc(C(N)=O)c(N)c(-c3c(Cl)ccc4[nH]ncc34)n2)c(Nc2ncccn2)n1` [Compound 950], 7.38.

The same test, now with this note: 2 hours with compound, read-out: FUOV-1 CDK1 pThr14 IC50.
Take `Cc1ccc2[nH]ncc2c1-c1nc(-c2cc(F)cnc2N[C@@H]2C[C@@H]3CC[C@H]2O3)nc(C(N)=O)c1N` [Compound 890]: the pIC50 is 7.09.
The same measure, in the same setting: the same measure for `Cc1ccc2[nH]ncc2c1-c1nc(-c2cc(F)cnc2N[C@@H]2C[C@H]3CC[C@@H]2O3)nc(C(N)=O)c1N` [Compound 898]: 7.12.

As a reminder, the pIC50 is the IC50 on a negative log10 scale, so that one unit is a factor of ten.

The record behind these values is patent US20250304537A1 (Repare Therapeutics Inc., priority 2022, published 2025).
